# Assay results published in patent US8492515B2 (priority 2008, dated 2013).
# Square brackets hold non-standard residues; d marks the D form. Peptide text beside a SMILES is read from it. Ac6c = NC1(C(=O)O)CCCCC1
# What was measured:
# [1] = system: A. baumannii ATCC BBA-1605
# Excerpt: (§1) To investigate the activity of the A3-APO metabolites, Chex1-Arg20 single chain unit and an Arg7-Arg20 common cleavage fragment were synthesized and studied for their ability to kill Enterobacteriaceae strains in undiluted Muller-Hinton broth, a true measure of potential clinical viability (Otvos et al., 2005. J. Med. Chem. 48: 5349-5359). The peptides of the invention were made on a CEM Liberty automated synthesizer with standard Fmoc-chemistry. The peptides were detached from the resin with the carboxyl terminus of the C-terminal Arg residue being in the form of an amino amide, —C(O)—NH2 (“Chex1-Arg20-NH2” and “Arg7-Arg20-NH2”), while still in the microwave chamber, and were purified by RP-HPLC. […] The biological studies carried out on chemically synthesized peptides in this example and succeeding examples were carried out on the C-terminal modified versions of the peptides wherein the C-terminal carboxylic acid function was in the form of an amide, —C(O)—NH2. Antibacterial growth inhibition assays were performed using sterile 96-well polypropylene plates (Nunc F96 microtiter plates) in a final volume of 100 μL as described previously (Cudic et al., 2002. Peptides 23: 271-283). The cell concentrations were estimated by measuring the ultraviolet absorbance at 600 nm and applying the formula cfu/mL=A600(3.8×10^8), where cfu is the number of colony-forming units. Briefly, 50 μL of a suspension of midlogarithmic phase bacterial cultures diluted to 5×10^5 cfu/mL in Muller-Hinton broth (MHB) was added to 50 μL of serially diluted peptides also dissolved in MHB. The final peptide concentration was 128 μg/mL. Cultures were then incubated at 37° C., 5% CO2 for 16-20 h without shaking, and growth inhibition was measured by recording the absorbance at 600 nm using a microplate reader. […] The minimal inhibitory concentration indicates the lowest peptide dose where no visible bacterial growth is detected after 16 hours incubation in full strength Muller-Hinton broth at 37° C. The peptide Chex-pyrr-Dap dimer was also included in the study. […] (Cudic et al., 2002. Peptides 23: 271-283).
# (§2) Following the protocol of Example 2, minimal inhibitory concentrations of the Chex1-Arg20 peptide against selected bacteria was determined. […] A3-APO was included for comparison.
# [2] = system: E. coli 5770
# Excerpt: as §1, §2
# [3] = system: E. coli HK179
# Excerpt: as §1, §2
# [4] = system: S. typhimurium G10215
# Excerpt: as §1, §2
# [5] = system: K. pneumoniae HK 123
# Excerpt: as §1, §2
# [6] = system: K. pneumoniae HK 186
# Excerpt: as §1, §2
# [7] = system: K. pneumoniae HK 127
# Excerpt: as §1, §2
# [8] = system: E. coli HK131
# Excerpt: as §1, §2
# [9] = system: S. typhimurium S5
# Excerpt: as §1, §2
# [10] = system: K. pneumoniae 012-3132
# Excerpt: as §1, §2
# [11] = system: P. aeruginosa 10
# Excerpt: as §1, §2
# [12] = system: E. coli SOTE40
# Excerpt: as §1, §2
# [13] = system: E. coli SEQ102
# Excerpt: as §1, §2
# [14] = system: K. pneumoniae K6
# Excerpt: as §1, §2
# [15] = system: S. saprophyticus ATCC 15305
# Excerpt: as §1, §2
# [16] = system: E. coli 045-849
# Excerpt: as §1, §2
# [17] = system: P. aeruginosa ATCC 39329
# Excerpt: as §1, §2
# [18] = system: S. typhimurium ATCC 14028
# Excerpt: as §1, §2
# [19] = system: extended-spectrum β-lactamase producing E. coli strain (designation 5770); assay: Systemic infection model, cisplatin-pretreated CD-1 mice, blood bacterial counts; format: in vivo
# Protocol: As peptide drugs, such as antimicrobial peptides, are predominantly cleared through the kidneys (Klootwijk et al., 1997. J. Clin. Endocrinol. Metab. 82: 3068-3073) and the kidney functions of mice are 20-fold faster than those of humans, CD-1 female mice of 15-20 g were pretreated with 18 mg/kg cisplatin for 3 days to impair kidney clearance similar to the levels observed in humans (Mathe et al., 2006. Lab. Anim. 40: 296-300) before they were challenged intraperitoneally (ip) with 10^8 CFU per g mouse of an extended-spectrum β-lactamase producing E. coli strain (designation 5770). Four, 8 and 12 hours after challenge 10 or 20 mg/kg peptide Chex1-Arg20 or 40 mg/kg imipenem (as a positive control) were administered ip to 10 mice in each group. Imipenem is a broad spectrum β-lactam antibiotic. Prior to drug administration at all three timepoints, blood was taken from the tail vein of 3-5 mice for determining blood bacterial counts. […] Antimicrobials were administered ip 4 hours after challenge 3 times in 4 hour intervals. Blood was taken immediately before antimicrobial treatments. Numbers in parentheses indicate the number of mice with <10^3 CFU/mL. Bacterial counts were determined 10 times from different dilution of blood from 5 mice in each group in each timepoints.
# [20] = system: E. coli D31; settings: full strength Muller-Hinton broth, 16 hours, 37° C.
# Excerpt: as §1
# [21] = system: E. coli HK179; settings: HK179, 16 h
# Excerpt: as §1
# [22] = system: S. typhimurium G10215; settings: G10215, 16 h
# Excerpt: as §1
# [23] = system: E. coli SEQ102; settings: SEQ102, 16 h
# Excerpt: as §1
# [24] = system: Escherichia coli isolates
compound,measurement,setting,value
"CC(C)C[C@H](NC(=O)[C@H](Cc1ccc(O)cc1)NC(=O)[C@@H]1CCCN1C(=O)[C@H](CCCNC(=N)N)NC(=O)[C@@H]1CCCN1C(=O)[C@H](CCCCN)NC(=O)[C@H](CC(=O)O)NC(=O)[C@@H]1CCCN1C(=O)[C@H](CCCNC(=N)N)NC(=O)C1(N)CCCCC1)C(=O)N1CCC[C@H]1C(=O)N[C@@H](CCCNC(=N)N)C(=O)N1CCC[C@H]1C(=O)N[C@@H](CCCNC(=N)N)C(=O)N1CCC[C@H]1C(=O)N1CCC[C@H]1C(=O)N[C@@H](CCCNC(=N)N)C(=O)N1CCC[C@H]1C(=O)N[C@H](C(=O)N[C@@H](CCCNC(=N)N)C(=O)O)C(C)C [Chex1-Arg20, Chex-Arg-Pro-Asp-Lys-Pro-Arg-Pro-Tyr-Leu-Pro-Arg-Pro-Arg--Pro-Pro-Arg-Pro-Val-Arg] (H-[Ac6c]RPDKPRPYLPRPRPPRPVR-OH; N-terminus and C-terminus assumed)","MIC, A. baumannii ATCC BBA-1605",[1],16 mg/L
same,"MIC, E. coli 5770",[2],0.5 mg/L
same,"MIC, E. coli HK179",[3],1 mg/L
same,"MIC, S. typhimurium G10215",[4],0.25 mg/L
same,"MIC, K. pneumoniae HK 123",[5],2 mg/L
same,"MIC, K. pneumoniae HK 186",[6],0.25 mg/L
same,"MIC, K. pneumoniae HK 127",[7],0.25 mg/L
same,"MIC, E. coli HK131",[8],1 mg/L
same,"MIC, S. typhimurium S5",[9],0.5 mg/L
same,"MIC, K. pneumoniae 012-3132",[10],0.25 mg/L
same,"MIC, P. aeruginosa 10",[11],32 mg/L
same,"MIC, E. coli SOTE40",[12],2 mg/L
same,"MIC, E. coli SEQ102",[13],1 mg/L
same,"MIC, K. pneumoniae K6",[14],2 mg/L
same,"MIC, S. saprophyticus ATCC 15305",[15],4 mg/L
same,"MIC, E. coli 045-849",[16],2 mg/L
same,"MIC, P. aeruginosa ATCC 39329",[17],32 mg/L
same,"MIC, S. typhimurium ATCC 14028",[18],1 mg/L
same,bacterial count reduction,[19]; 10 mg/kg,approximately 3 log 10 units
same,Bacterial counts in blood after inoculation/challenge,"[19]; 10 mg/kg ip, 4 h (blood taken before first dose)",3.2 × 10^5 CFU/mL
same,Bacterial counts in blood after inoculation/challenge,"[19]; 10 mg/kg ip, 8 h",8.2 × 10^3 CFU/mL
same,number of mice with <10^3 CFU/mL,"[19]; 10 mg/kg ip, 8 h",1/5
same,Bacterial counts in blood after inoculation/challenge,"[19]; 10 mg/kg ip, 12 h",< 1.3 × 10^4 CFU/mL
same,number of mice with <10^3 CFU/mL,"[19]; 10 mg/kg ip, 12 h",1/5
same,effect on mouse blood after a lethal E. coli infection,[19]; 20 mg/kg,sterilized mouse blood
same,Bacterial counts in blood after inoculation/challenge,"[19]; 20 mg/kg ip, 4 h (blood taken before first dose)",3.2 × 10^5 CFU/mL
same,Bacterial counts in blood after inoculation/challenge,"[19]; 20 mg/kg ip, 8 h",5.5 × 10^4 CFU/mL
same,number of mice with <10^3 CFU/mL,"[19]; 20 mg/kg ip, 8 h",3/5
same,Bacterial counts in blood after inoculation/challenge,"[19]; 20 mg/kg ip, 12 h",< 3.7 × 10^3 CFU/mL
same,number of mice with <10^3 CFU/mL,"[19]; 20 mg/kg ip, 12 h",3/5
same,bacterial count reduction,[19]; after two doses of 20 mg/kg,3.5 log 10 units
same,mice having blood bacterial levels below detection limits,[19]; after two doses of 20 mg/kg,60%
same,MIC against E. coli D31,[20],8 mg/L
same,MIC against E. coli HK179,[21],2 mg/L
same,MIC against S. typhimurium G10215,[22],4 mg/L
same,MIC against E. coli SEQ102,[23],32 mg/L
same,minimal bactericidal concentrations (MBC),[24],2 to 32 mg/L
